Source: US20230074545A1, “TREATMENT OF CANCER WITH CDK12/13 INHIBITORS” (Kinnate Biopharma Inc., priority 2019, published 2023)
Like-named read-outs stand apart in the source and are kept apart here.

Legend:
RNA polymerase II [1] = experiment: Phosphorylation of RNA polymerase II (pS2/S2) in HCC70 xenograft; type: in vivo, CB-17 SCID mice; settings: intravenous
Method: The ability of compound 4 and compound 5 to inhibit phosphorylation of RNA polymerase II at the S2 unit was analyzed in a mouse xenograft model of triple-negative breast cancer. CB-17 SCID mice were inoculated with the HCC70 cells as the in vivo model for triple negative breast cancer. Each mouse was inoculated subcutaneously on the right flank with HCC70 tumor cells (5×106) in 0.1 mL of RPMI-1640 Medium and Matrigel mixture (1:1 ratio) for tumor development. The treatment started when the mean tumor size reached approximately 100-150 mm^3. Mice were treated intravenously with vehicle only, 20 mg/kg of compound 4, 25 mg/kg of compound 4, 10 mg/kg of compound 5, or 25 mg/kg of compound 5 for 2 hours. Measurements were taken at 0.5 hours, 6 hours and 24 hours after the dose. The amount of phosphorylated RNA polymerase II and the total amount of RNA polymerase II was analyzed. The values were normalized by taking the ratio of the phosphorylated RNA polymerase II to the total RNA polymerase II (pS2/S2).

CDK2 = molecular target: T1, CDK2 (Homo sapiens, UniProt P24941); experiment: Radiometric kinase assay (33PanQinase); type: biochemical; settings: read-out: Inhibition of CDK Activity (molar inhibition in a radiometric assay)
T1 construct: either as full-length or enzymatically active fragments; purchased ProQinase GmbH (Reaction Biology); host or cells: Sf9 insect cells or E. coli
Method: (§1) The compounds 1-5 (see Table 1) were assayed for kinase activity at ProQinase (ProQinase GmbH, Reaction Biology; Freiburg, Germany) using their commercially available radiometric kinase assay services. Briefly, the compounds were provided as solids and were dissolved to 1×10^−03 M/100% DMSO stock solutions on the day of assay. All protein kinases were provided by ProQinase and were expressed in Sf9 insect cells or in E. coli as recombinant GST-fusion proteins or His-tagged proteins, either as full-length or enzymatically active fragments. All kinases were produced from human cDNAs and purified by either GSH-affinity chromatography or immobilized metal. The purity of the protein kinases was examined by SDS-PAGE/Coomassie staining, the identity was checked by mass spectroscopy. A radiometric protein kinase assay (^33PanQinase® Activity Assay) was used for measuring the kinase activity of the protein kinase. All kinase assays were performed in 96-well FlashPlates™ from PerkinElmer (Boston, Mass., USA) in a 50 microliter reaction volume. The reaction cocktail was pipetted in four steps in the following order: 1) 25 microliter of assay buffer (standard buffer/[gamma-^33P]-ATP); 2) 10 microliter of ATP solution (in H2O); 3) 5 microliter of test compound (in 10% DMSO); 4) 10 microliter of enzyme/substrate mixture.
(§2) As a parameter for assay quality, the Z′-factor (Zhang et al., J. Biomol. Screen. 2: 67-73, 1999) for the low and high controls of each assay plate (n=8) was used. ProQinase's criterion for repetition of an assay plate is a Z′-factor below 0.4.

CDK7 = molecular target: T2, CDK7 (Homo sapiens, UniProt P50613); experiment: Radiometric kinase assay (33PanQinase); type: biochemical; settings: read-out: Inhibition of CDK Activity (molar inhibition in a radiometric assay)
T2 construct: either as full-length or enzymatically active fragments; purchased ProQinase GmbH (Reaction Biology); host or cells: Sf9 insect cells or E. coli
Method: as §1, §2

CDK9 = molecular target: T3, CDK9 (Homo sapiens, UniProt P50750); experiment: Radiometric kinase assay (33PanQinase); type: biochemical; settings: read-out: Inhibition of CDK Activity (molar inhibition in a radiometric assay)
T3 construct: either as full-length or enzymatically active fragments; purchased ProQinase GmbH (Reaction Biology); host or cells: Sf9 insect cells or E. coli
Method: as §1, §2

CDK13 = molecular target: T4, CDK13 (Homo sapiens, UniProt Q14004); experiment: Radiometric kinase assay (33PanQinase); type: biochemical; settings: read-out: Inhibition of CDK Activity (molar inhibition in a radiometric assay)
T4 construct: either as full-length or enzymatically active fragments; purchased ProQinase GmbH (Reaction Biology)
Method: as §1, §2

CDK12 = molecular target: T5, CDK12 (Homo sapiens, UniProt Q9NYV4); experiment: Radiometric kinase assay (33PanQinase); type: biochemical; settings: read-out: Inhibition of CDK Activity (molar inhibition in a radiometric assay)
T5 construct: either as full-length or enzymatically active fragments; purchased ProQinase GmbH (Reaction Biology)
Method: as §1, §2

OVCAR-3 cells = experiment: OVCAR-3 cell proliferation (CellTiter-Glo); type: cell-based; settings: Homo sapiens, read-out: Inhibition of proliferation of OVCAR3 cells (IC50 in M)
From the text: OVCAR-3 was used as the cell line to model for ovarian cancer in vitro and in vivo. This cell line was obtained from ATCC (Catalog #HTB-161) and is an adenocarcinoma line from the malignant ascites of a patient with progressive adenocarcinoma of the ovary and embodies a preclinical model of high-grade, serous ovarian cancer (HGSOC). OVCAR-3 has been deemed an appropriate model system in which to study drug resistance in ovarian cancer, and the presence of hormone receptors should be useful for the evaluation of hormonal therapy. OVCAR-3 is resistant to clinically relevant concentrations of adriamycin, melphalan and cisplatin.
(§3) Compounds 1-5 were tested at different concentrations (from 4 μM to 126.4 pM; 0.5 log serial dilutions) for their ability to inhibit the proliferation of OVCAR-3 cells. Cells were grown in ATCC-formulated RPMI-1640 Medium (ATCC 30-2001)+10% FBS. The cells were cultured at 37° C. in a humidified chamber in the presence of 5% CO2. Proliferation assays were conducted over a 72 hour time period.
(§4) Cells were cultured and maintained as described above, with cells always fed on the day prior to assay. Assays were run with a 2 hour compound exposure followed by a washout and then a 72 hour proliferation time or exposed to the test compounds for 72 hours with no washout of compound. DMSO was used as a control in all wells not receiving test compound and DMSO wells were used for plate normalization. Proliferation and survival of cells was quantified based on the amount of total ATP following cell lysis as determined by using a standard assay kit used according to manufacturer's instructions. Experiments were performed in the same media used by each cell type for growth and maintenance. Cells (5×10^4) were plated in 96 well plates for compound exposure. CellTiter-Glo® (Promega Corporation, Madison, Wis. USA) was used to assess the anti-proliferative effects of the compounds following manufacturer's directions and utilizing the reagents supplied with the CellTiter-Glo® kit.

HCC70 cells = experiment: HCC70 cell proliferation (CellTiter-Glo); type: cell-based; settings: Homo sapiens, read-out: Inhibition of Proliferation of HCC70 Cells (IC50 in M)
Method: HCC70 was the cell line used as a model of triple-negative breast cancer (TNBC). This cell line was obtained from ATCC and was initiated from a primary ductal carcinoma in 1992 (Catalog #CRL-2315; mammary gland primary ductal carcinoma). The HCC-70 tumor cell line was maintained in vitro as a monolayer culture in RPMI-1640 medium supplemented with 10% heat inactivated fetal bovine serum at 37° C. in an atmosphere of 5% CO2 in air.
as §3, with “Representative compounds” for “Compounds 1-5”, “HCC70” for “OVCAR-3”
as §4

RNA polymerase II [2] = experiment: Inhibition of phosphorylation of RNA polymerase II in NCI-H82 cells; type: cell-based; settings: Homo sapiens, 2 hours, phosphorylated/total RNA polymerase II
Method: CDK12 and CDK13 phosphorylate RNA polymerase II. The ability of compound 1 to inhibit phosphorylation of RNA polymerase II was analyzed in NCI-H82 cells. 200,000 cells were plated in each well of a 96 well MSD plate. Cells were treated with compound 1, THZ531 (a positive control), or E9 at concentrations between 4 μM to 126.4 pM (0.5 log serial dilutions) for 2 hours. THZ531 and E9 are further discussed in Gao et al, Cell Chemical Biology 2017. The amount of phosphorylated RNA polymerase II and the total amount of RNA polymerase II was analyzed using antibodies. The values were normalized by taking the ratio of the phosphorylated RNA polymerase II to the total RNA polymerase II. As depicted in FIG. 3A (THZ531), FIG. 3B (Compound 1), and Table 6, increasing the concentration of compound 1 results in a dose-specific increase in the inhibition of phosphorylation of RNA polymerase II.

[3] = OVCAR-3 (no washout), exposed for 72 hours
[4] = OVCAR-3 (w/washout), 2 hour exposure, washout, 72 hour proliferation
[5] = HCC70 (no washout), exposed for 72 hours
[6] = HCC70 (w/washout), 2 hour exposure, washout, 72 hour proliferation

T5 sequence (Q9NYV4 whole entry, the tested form may be a part): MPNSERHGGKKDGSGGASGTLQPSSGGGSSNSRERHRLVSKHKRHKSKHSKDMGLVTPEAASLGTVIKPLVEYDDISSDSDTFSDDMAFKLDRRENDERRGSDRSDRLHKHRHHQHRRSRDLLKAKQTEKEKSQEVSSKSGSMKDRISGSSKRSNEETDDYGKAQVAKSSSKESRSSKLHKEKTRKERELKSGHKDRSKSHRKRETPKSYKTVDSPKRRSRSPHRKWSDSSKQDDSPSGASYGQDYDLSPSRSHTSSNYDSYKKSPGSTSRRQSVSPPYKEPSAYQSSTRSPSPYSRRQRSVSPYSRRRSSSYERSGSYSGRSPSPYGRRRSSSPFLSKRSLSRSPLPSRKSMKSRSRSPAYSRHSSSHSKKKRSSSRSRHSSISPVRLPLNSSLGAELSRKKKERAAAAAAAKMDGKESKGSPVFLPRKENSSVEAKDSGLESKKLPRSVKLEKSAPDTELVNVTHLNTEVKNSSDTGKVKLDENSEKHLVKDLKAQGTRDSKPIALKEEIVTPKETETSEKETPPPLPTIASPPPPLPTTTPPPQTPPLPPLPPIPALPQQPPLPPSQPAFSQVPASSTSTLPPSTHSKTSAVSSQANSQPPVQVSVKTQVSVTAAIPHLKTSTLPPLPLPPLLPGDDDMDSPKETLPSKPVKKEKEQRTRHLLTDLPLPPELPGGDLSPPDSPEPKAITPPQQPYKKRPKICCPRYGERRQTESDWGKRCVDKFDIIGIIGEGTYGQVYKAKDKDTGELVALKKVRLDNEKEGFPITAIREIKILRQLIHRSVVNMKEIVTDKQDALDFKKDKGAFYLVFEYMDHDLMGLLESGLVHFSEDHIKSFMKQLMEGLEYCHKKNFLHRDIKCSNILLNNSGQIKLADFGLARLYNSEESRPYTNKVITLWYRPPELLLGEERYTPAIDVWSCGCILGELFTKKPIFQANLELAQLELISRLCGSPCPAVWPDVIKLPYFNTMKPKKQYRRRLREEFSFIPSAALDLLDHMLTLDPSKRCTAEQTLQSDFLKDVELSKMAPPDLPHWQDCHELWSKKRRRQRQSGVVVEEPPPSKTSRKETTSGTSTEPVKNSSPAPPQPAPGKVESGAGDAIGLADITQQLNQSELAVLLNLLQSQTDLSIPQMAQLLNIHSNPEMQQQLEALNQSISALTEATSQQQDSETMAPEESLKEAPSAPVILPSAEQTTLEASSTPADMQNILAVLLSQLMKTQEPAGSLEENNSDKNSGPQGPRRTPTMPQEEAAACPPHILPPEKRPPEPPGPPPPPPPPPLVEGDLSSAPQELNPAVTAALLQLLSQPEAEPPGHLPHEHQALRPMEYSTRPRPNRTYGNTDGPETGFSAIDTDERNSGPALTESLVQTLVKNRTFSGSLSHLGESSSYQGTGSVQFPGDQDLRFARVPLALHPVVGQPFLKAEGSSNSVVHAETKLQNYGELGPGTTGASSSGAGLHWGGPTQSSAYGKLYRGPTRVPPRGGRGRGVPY
T5 sequence (O75909 whole entry partner, the tested form may be a part): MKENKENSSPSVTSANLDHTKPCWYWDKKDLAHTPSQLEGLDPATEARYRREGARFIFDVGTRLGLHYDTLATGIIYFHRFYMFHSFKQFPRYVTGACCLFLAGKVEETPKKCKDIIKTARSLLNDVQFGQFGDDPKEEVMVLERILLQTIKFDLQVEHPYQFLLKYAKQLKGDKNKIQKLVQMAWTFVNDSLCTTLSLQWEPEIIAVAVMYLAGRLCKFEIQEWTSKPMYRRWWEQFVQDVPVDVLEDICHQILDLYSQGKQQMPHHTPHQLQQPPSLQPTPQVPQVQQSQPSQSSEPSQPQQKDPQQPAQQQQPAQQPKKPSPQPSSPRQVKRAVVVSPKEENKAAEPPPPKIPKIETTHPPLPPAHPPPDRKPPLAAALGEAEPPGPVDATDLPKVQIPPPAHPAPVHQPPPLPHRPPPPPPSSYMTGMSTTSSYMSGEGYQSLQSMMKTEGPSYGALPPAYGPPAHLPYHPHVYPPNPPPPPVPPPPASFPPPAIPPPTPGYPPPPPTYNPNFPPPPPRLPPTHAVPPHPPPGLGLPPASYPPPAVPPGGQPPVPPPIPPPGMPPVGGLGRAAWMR
T2 sequence (P50613 whole entry, the tested form may be a part): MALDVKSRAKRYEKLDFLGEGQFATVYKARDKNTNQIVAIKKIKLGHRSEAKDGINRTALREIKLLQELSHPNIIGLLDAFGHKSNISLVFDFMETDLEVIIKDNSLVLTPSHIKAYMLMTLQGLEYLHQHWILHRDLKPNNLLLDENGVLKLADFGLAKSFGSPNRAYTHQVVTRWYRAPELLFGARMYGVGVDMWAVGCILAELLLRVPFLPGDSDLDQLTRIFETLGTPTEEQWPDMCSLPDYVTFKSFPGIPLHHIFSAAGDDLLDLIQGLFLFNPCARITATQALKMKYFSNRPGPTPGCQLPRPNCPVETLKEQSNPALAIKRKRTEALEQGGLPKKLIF
T2 sequence (P51946 whole entry partner, the tested form may be a part): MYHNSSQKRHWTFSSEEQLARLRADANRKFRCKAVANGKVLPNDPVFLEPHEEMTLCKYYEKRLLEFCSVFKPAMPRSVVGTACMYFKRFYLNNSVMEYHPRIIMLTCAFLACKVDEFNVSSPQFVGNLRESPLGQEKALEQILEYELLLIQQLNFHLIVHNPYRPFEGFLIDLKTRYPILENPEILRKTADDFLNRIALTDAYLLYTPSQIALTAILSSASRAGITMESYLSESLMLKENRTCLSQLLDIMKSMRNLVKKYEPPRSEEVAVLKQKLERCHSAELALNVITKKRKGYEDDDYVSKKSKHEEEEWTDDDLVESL
T2 sequence (P51948 whole entry partner, the tested form may be a part): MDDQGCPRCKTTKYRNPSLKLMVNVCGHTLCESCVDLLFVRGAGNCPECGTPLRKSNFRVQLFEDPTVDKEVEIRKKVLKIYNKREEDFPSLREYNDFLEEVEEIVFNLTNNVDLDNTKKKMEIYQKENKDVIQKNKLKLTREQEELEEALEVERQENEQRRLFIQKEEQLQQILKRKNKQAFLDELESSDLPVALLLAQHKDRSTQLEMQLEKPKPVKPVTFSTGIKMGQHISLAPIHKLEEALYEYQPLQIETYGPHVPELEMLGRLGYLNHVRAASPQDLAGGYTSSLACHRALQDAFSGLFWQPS
T3 sequence (P50750 whole entry, the tested form may be a part): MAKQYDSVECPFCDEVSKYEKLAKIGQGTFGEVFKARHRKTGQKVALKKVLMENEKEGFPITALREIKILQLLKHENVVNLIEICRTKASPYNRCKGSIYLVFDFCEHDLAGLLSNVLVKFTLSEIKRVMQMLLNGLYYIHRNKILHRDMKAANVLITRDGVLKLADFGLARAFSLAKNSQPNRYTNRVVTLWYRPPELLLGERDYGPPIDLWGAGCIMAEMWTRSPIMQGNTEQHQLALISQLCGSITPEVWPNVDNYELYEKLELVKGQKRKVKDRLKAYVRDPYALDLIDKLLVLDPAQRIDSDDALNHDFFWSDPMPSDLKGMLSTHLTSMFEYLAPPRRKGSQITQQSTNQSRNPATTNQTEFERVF
T3 sequence (O60563 whole entry partner, the tested form may be a part): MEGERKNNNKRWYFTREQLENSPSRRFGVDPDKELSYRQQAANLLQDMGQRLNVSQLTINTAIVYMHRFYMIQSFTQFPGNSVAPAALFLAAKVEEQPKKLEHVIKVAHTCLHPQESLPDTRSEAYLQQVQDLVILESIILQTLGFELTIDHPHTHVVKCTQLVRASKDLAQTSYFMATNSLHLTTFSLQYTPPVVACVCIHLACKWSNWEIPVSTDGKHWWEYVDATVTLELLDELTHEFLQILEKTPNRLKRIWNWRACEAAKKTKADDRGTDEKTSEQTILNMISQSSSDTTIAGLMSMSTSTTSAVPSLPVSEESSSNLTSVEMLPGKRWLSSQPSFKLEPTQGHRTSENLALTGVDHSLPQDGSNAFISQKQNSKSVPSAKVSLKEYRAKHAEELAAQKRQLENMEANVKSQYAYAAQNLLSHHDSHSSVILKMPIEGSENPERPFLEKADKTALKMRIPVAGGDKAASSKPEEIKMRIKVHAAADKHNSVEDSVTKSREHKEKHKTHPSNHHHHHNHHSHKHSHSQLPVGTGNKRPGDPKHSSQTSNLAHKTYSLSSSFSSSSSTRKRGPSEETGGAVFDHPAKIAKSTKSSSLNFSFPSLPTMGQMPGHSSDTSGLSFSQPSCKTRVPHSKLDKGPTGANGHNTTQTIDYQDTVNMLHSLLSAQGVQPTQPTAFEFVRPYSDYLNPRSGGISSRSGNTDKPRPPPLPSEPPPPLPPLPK

SMILES | decrease in the pS2/S2 ratio, 25 mg/kg versus 10 mg/kg (RNA polymerase II [1]; all time points (0.5, 6, 24 hours)) | pS2/S2 compared to treatment with the vehicle alone (RNA polymerase II [1]; compound 4 20 or 25 mg/kg, compound 5 10 or 25 mg/kg, 0.5, 6 and 24 hours after the dose) | IC50 (CDK2) | IC50 (CDK7) | IC50 (CDK9) | IC50 (CDK13) | IC50 (CDK12) | IC50 (OVCAR-3 cells; [3]) | IC50 (OVCAR-3 cells; [4]) | IC50 (HCC70 cells; [5]) | IC50 (HCC70 cells; [6]) | IC50 (RNA polymerase II [2])
C#Cc1cnc(N[C@@H]2CCN(C(=O)c3ccc(NC(=O)C=C)cc3)C2)nc1 [Compound 5, (R)-N-(4-(3-((5-ethynylpyrimidin-2-yl)amino)pyrrolidine-1-carbonyl)phenyl)acrylamide] | greater decrease | reduced the pS2/S2 at all time points | 3370 nM | 3770 nM | 1370 nM | 104 nM | 59.3 nM | 10.1 nM | 103 nM | 19.3 nM | 82.1 nM | 
CN(C)C/C=C/C(=O)Nc1ccc(C(=O)N2CCC[C@@H](Nc3ncc(Cl)c(-c4c[nH]c5ccccc45)n3)C2)cc1 [THZ531, reference compound] |  |  |  |  |  |  |  |  |  |  |  | 312 nM
C=CC(=O)Nc1ccc(C(=O)N2CC[C@@H](Nc3ncc(Cl)cn3)C2)cc1 [Compound 3, (R)-N-(4-(3-((5-chloropyrimidin-2-yl)amino)pyrrolidine-1-carbonyl)phenyl)acrylamide] |  |  | 7930 nM | 2790 nM | 1170 nM | 379 nM | 96.7 nM | 7.45 nM | 33.7 nM | 10.1 nM | 110 nM | 
C=CC(=O)N(C)c1ccc(C(=O)N2CC[C@@H](Nc3ncc(Cl)c(OC)n3)C2)cc1 [Compound 2, (R)-N-(4-(3-((5-chloro-4-methoxypyrimidin-2-yl)amino)pyrrolidine-1-carbonyl)phenyl)-N-methylacrylamide] |  |  | 11300 nM | 518 nM | 1320 nM | 324 nM | 54.4 nM | 7.63 nM |  | 11.3 nM | 38 nM | 
